Data reported in article PMC9027111, “Morphing Natural Product Platensimycin via Heck, Sonogashira, and One-Pot Sonogashira/Cycloaddition Reactions to Produce Antibiotics with In Vivo Activity” (Antibiotics, 2022).
In brackets after ≈: the same amount, converted by molar mass. Read-outs that look alike come from different tables or passages of the source.

What was measured:
[1] = set-up: method as in PMID 31244223; settings: pooled human liver microsomes; previously reported ref 14; cited from earlier work
[2] = set-up: method as in PMID 31244223; settings: previously reported ref 14; cited from earlier work
MRSA 3 = assay: MIC determination (LB agar dilution), clinical MRSA strain 3; type: cell-based; settings: Staphylococcus aureus, at least two replicates
Protocol: (§1) All of the tested compounds were prepared to different concentrations with methanol, and 150 μL of the respective methanol solution was used to mix with 15 mL LB (Luria–Bertani) medium with 1% agar in each Petri dish. Linezolid and PTM were used as reference compounds for comparison. In vitro bioassay for compounds was carried out using clinical strains of S. aureus, E. coli, and Klebsilla pneumoniae. The bacteria were cultivated in LB medium and incubated for 16 h at 37 °C, 250 rpm. The resulting bacteria were diluted to approximate 0.25 at OD600, which were further diluted 10_4-fold. The diluted bacteria (2 μL) were added to Petri dish containing the respective compounds. The resulting Petri dishes were incubated for 16 h at 37 °C. The determination of MIC is the concentration of Petri dishes with no visible growth of bacteria.

[3] = Plasma protein binding by equilibrium dialysis; type: in vitro ADME; settings: 37 °C; for Plasma Protein Binding Bound %: 5 μM, 6 h; for fraction unbound at 6 h, 5 μM: plasma, read-out: Plasma Protein Binding Free %
Protocol: Equilibrium dialysis was used to determine the plasma protein binding. All of the test compounds were treated in triplicate by RED Rapid Equilibrium Dialysis Device (Thermo Scientific, Waltham, MA, USA). In brief, the initial compound concentration (5 μM) in the plasma chamber was first set, followed by the addition of phosphate buffered saline (PBS) to the receiver chamber. The Equilibrium Dialysis Device was allowed to shake for 6 h in a 37 °C incubator. Then, 25 μL solution was sampled from the plasma and PBS chambers, respectively, and they were diluted with either blank PBS or plasma to achieve a 1:1 ratio of plasma: PBS for all samples. The concentrations of the tested compounds in the plasma and PBS chambers were determined by LC–MS/MS. The fraction bound was calculated as ([plasma]—[PBS])/[plasma].

S. aureus ATCC 29213 = assay: MIC determination (LB agar dilution), S. aureus ATCC 29213; type: cell-based; settings: Staphylococcus aureus, ATCC29213, at least two replicates
Protocol: as §1

MRSA [4] = assay: Mouse skin infection with MRSA; type: in vivo, BABL/c mice; settings: for load of S. aureus on treated skin: n = 5/group; for healing of the infected skin: topical twice a day for 7 days, observation and H&E staining
Protocol: Mouse MRSA skin infection study was performed as described before. Female BABL/c mice (20–22 g, 7-weeks old) were anesthetized by intraperitoneal injection of 4% chloral hydrate (200 μL), and the hair of mice back surface was removed and washed with povidone iodine–propanol solution. A gauze (15 × 15 mm) was preheated in boiling water (90 °C) for 10 min, and then placed on the back of each mouse for 40 s to generate the burns. Next, the burn was bound with sterile gauze and infected with 1 × 10^8 colony-forming units (CFU) of MRSA. An open wound was witnessed at the burns after 48 h post infection. The infected mice were then divided into three groups (5 per group). A4 (200 μg) was formulated into 2% ointment consisting of 1.4% carbomer, 1.4% triethanolamine, 14% propanediol, 14% glycerinum, and 1% azone. Mupirocin (2% w/w) were used as the positive control, while vehicle used as negative control. All mice were treated twice a day for 7 days. Mice were euthanized after 24 h of the last treatment, and the wound area was slightly swabbed with 70% ethanol. Wound area (1 cm^2) was excised, homogenized, and plated onto TSB agar plates to count viable bacteria. Other skin biopsy specimens removed from the wounds were stored at 4% paraformaldehyde solution to be used for hematoxylin and eosin (HE) staining.

MSSA 2 = assay: MIC determination (LB agar dilution), clinical MSSA strain 2; type: cell-based; settings: Staphylococcus aureus, at least two replicates
Protocol: as §1

MRSA [5] = type: in vivo; settings: for survival rate of the infected mice: 7 days; for survival of infected mice: tracked 7 days; for survival of infected mice / mice died within 24 h: n = 5
[6] = Stability of A4 in LB agar; type: physicochemical; settings: 8 μg mL−1 in LB agar, 37 °C, 16 h, UPLC
Protocol: Figure S44. Analysis of the stability of A4 from LB agar. Compound A4 (0.1 mg mL−1)
were diluted in 5 mL of LB agar (1.5% v/v) to 8 μg mL−1, and the LB agar plates were
then incubated at 37 °C for 16 h. The LB agar containing A4 was extracted by DCM (3 ×
10 mL), dried with anhydrous Na2SO4 and concentrated in vacuum. The resulting
extracts were analysed by Ultra-Performance Liquid Chromatography.
(1 picture or pasted object on this page, not shown here)

MSSA 1 = assay: MIC determination (LB agar dilution), clinical MSSA strain 1; type: cell-based; settings: Staphylococcus aureus, at least two replicates
Protocol: as §1

MRSA 4 = assay: MIC determination (LB agar dilution), clinical MRSA strain 4; type: cell-based; settings: Staphylococcus aureus, at least two replicates
Protocol: as §1

[7] = Metabolic stability assay in pooled human liver microsomes; type: in vitro ADME; settings: pH 7.4, 37 °C, NADPH, read-out: Half-Life in Human Hepatic Microsomes
Protocol: Each compound was incubated in duplicate with pooled human liver microsomes at 37 °C. The tested compounds were pre-incubated with pooled human liver microsomes in phosphate buffer (pH 7.4) for 5 min in a shaking water bath at 37 °C. The reaction was initiated by adding a NADPH-generating system and incubated for 0, 15, 30, 45, and 60 min. The reaction was stopped by transferring the incubation mixture to CH3CN/MeOH. Samples were then mixed and centrifuged. Supernatants were used for HPLC–MS/MS analysis. Data were calculated as percent parent compounds remaining by assuming zero-minute time point peak area ratio (analyte/IS) as 100% and dividing remaining time point peak area ratios by the zero-minute time point peak area ratio. Data were subjected to fit a first-order decay model to calculate both the slope and half-life.

[8] = 2 mg topical twice a day for 7 days
[9] = 10 mg/kg intraperitoneal at 1 h and 5 h after infection

SMILES | MIC (MRSA 3) [µg/mL] | Plasma Protein Binding Bound % [3] [%] | fraction unbound at 6 h, 5 μM [3] | MIC (S. aureus ATCC 29213) [µg/mL] | MIC (MSSA 2) [µg/mL] | MIC (MSSA 1) [µg/mL] | MIC (MRSA 4) [µg/mL] | half-life [7] [min] | also measured
CCSC1CC(=O)C(C)(CCC(=O)Nc2c(O)ccc(C(=O)O)c2O)C2C3CC4CC12CC4(C)O3 (centres unmarked) [1a, PTM-2t] |  |  |  |  |  |  |  |  | Half-Life in Human Hepatic Microsomes [1]: 22 min; Plasma Protein Binding Bound % [2]: 35%; Plasma Protein Binding Free % [2]: 65%
CC(C)(C)OC(=O)C=CC1=CC23CC4CC(OC4(C)C2)C3C(C)(CCC(=O)Nc2c(O)ccc(C(=O)O)c2O)C1=O (centres unmarked) [A4] | 1 (≈ 1.76 µM) | 98.3 | 0.017 | 1 (≈ 1.76 µM) | 1 (≈ 1.76 µM) | 1 (≈ 1.76 µM) | 1 (≈ 1.76 µM) | 26 | reduction of MRSA on the skin compared to untreated mice (MRSA [4]; [8]): ~ 790 fold; load of S. aureus on treated skin (MRSA [4]; [8]): (1.0 ± 0.3) × 10^6 CFU/g; healing of the infected skin (MRSA [4]): showed the healing of the skin; survival rate of the infected mice (MRSA [5]; 5 mg/kg intraperitoneal at 1 h and 5 h after infection): 60%; survival of infected mice (MRSA [5]; [9]): 60%; survival rate of the infected mice (MRSA [5]; 20 mg/kg intraperitoneal at 1 h and 5 h after infection): 80%; survival rate of the infected mice (MRSA [5]; 30 mg/kg intraperitoneal at 1 h and 5 h after infection): 60%; survival of infected mice (MRSA [5]; 50 mg/kg intraperitoneal at 1 h and 5 h after infection): 20%; survival of infected mice after oral administration (MRSA [5]; 30 and 50 mg/kg by oral gavage): most of the treated mice survived within 48 h; stability in LB agar [6]: relatively stable
CC12CC34C=C(C=CC(=O)N5CCOCC5)C(=O)C(C)(CCC(=O)Nc5c(O)ccc(C(=O)O)c5O)C3C(CC1C4)O2 (centres unmarked) [A10] | 16 (≈ 27.6 µM) | 77 | 0.23 | 16 (≈ 27.6 µM) | 16 (≈ 27.6 µM) | 16 (≈ 27.6 µM) | 16 (≈ 27.6 µM) | > 120 | 
CC12CC34C=C(C#Cc5cccc(F)c5)C(=O)C(C)(CCC(=O)Nc5c(O)ccc(C(=O)O)c5O)C3C(CC1C4)O2 (centres unmarked) [B8] | 1 (≈ 1.79 µM) | 99.4 | 0.006 | 1 (≈ 1.79 µM) | 1 (≈ 1.79 µM) | 1 (≈ 1.79 µM) | 1 (≈ 1.79 µM) | 96 | mice died within 24 h (MRSA [5]; [9]): 40%
CC(=O)C1=C(C)OC(Cc2ccc(F)cc2)=C2C(=O)C(C)(CCC(=O)Nc3c(O)ccc(C(=O)O)c3O)C3C4CC5CC3(CC5(C)O4)C12 (centres unmarked) [C6] | 32 (≈ 48.5 µM) | 99.6 | 0.004 | 32 (≈ 48.5 µM) | 32 (≈ 48.5 µM) | 32 (≈ 48.5 µM) | 32 (≈ 48.5 µM) | 17 | 
CC12C[C@@]34C=CC(=O)[C@@](C)(CCC(=O)Nc5c(O)ccc(C(=O)O)c5O)C3[C@H](CC1C4)O2 (some centres unmarked) [PTM, Platensimycin] | 1 (≈ 2.27 µM) |  |  | 1 (≈ 2.27 µM) | 1 (≈ 2.27 µM) | 1 (≈ 2.27 µM) | 1 (≈ 2.27 µM) |  | Half-Life in Human Hepatic Microsomes [1]: 51 min; survival of infected mice (MRSA [5]; [9]): died after MRSA infection within 24 h; Plasma Protein Binding Free % [2]: 34%
CC12CC34C=C(I)C(=O)C(C)(CCC(=O)Nc5c(O)ccc(C(=O)O)c5O)C3C(CC1C4)O2 (centres unmarked) [compound 4, 6-iodo PTM] | 1 (≈ 1.76 µM) | 87 | 0.13 | 1 (≈ 1.76 µM) | 1 (≈ 1.76 µM) | 1 (≈ 1.76 µM) | 1 (≈ 1.76 µM) | 58 | mice died within 24 h (MRSA [5]; [9]): 40%
C/C(=C\C(=O)OCCCCCCCCC(=O)O)C[C@@H]1OC[C@H](C[C@@H]2O[C@H]2[C@@H](C)[C@H](C)O)[C@@H](O)[C@H]1O [mupirocin, reference compound] |  |  |  |  |  |  |  |  | load of S. aureus on treated skin (MRSA [4]; [8]): (6.5 ± 2.4) × 10^5 CFU/g; healing of the infected skin (MRSA [4]): showed the healing of the skin
